Results reported in US20230120564A1, “PYRIDO[3,4-D]PYRIMIDINE DERIVATIVE AND THERAPEUTIC PHARMACEUTIC COMPOSITION COMPRISING SAME” (KOREA INSTITUTE OF SCIENCE AND TECHNOLOGY, priority 2020, published 2023).

Columns and labels:
Assay in all cases: full kinase panel biochemical assay
ABL1 = ABL1 (Homo sapiens, UniProt P00519); conditions: single concentration of 1 μM; read-out: percent inhibition of ABL1
Procedure: (§1) In order to measure the protein kinase inhibitory activity (% inhibition) of the compound of the present invention, biochemical assay was performed in the full kinase panel. As a test compound, Compound No. 4 was used. The percent inhibition of each kinase when treated with the test compound at a single concentration of 1 μM was measured, and the residual enzyme activity values (%) of the kinases were calculated. Kinases whose calculated residual enzyme activity values (%) was 30% or less (i.e., kinases inhibited by 70% or more) are as follows: ABL1, ABL2/ARG, ACK1, ARAF, BLK, BMX/ETK, BRAF, BRK, BTK, c-Kit, c-Src, CSK, DDR1, DDR2, EPHA1, EPHA2, EPHA3, EPHA4, EPHA5, EPHA6, EPHA7, EPHA8, EPHB1, EPHB2, EPHB3, EPHB4, ERBB2/HER2, ERBB4/HER4, FGFR1, FGFR2, FGFR3, FGR, FLT1/VEGFR1, FLT4/VEGFR3, FMS, FRK/PTK5, FYN, GCK/MAP4K2, HCK, HGK/MAP4K4, JAK1, JAK2, KDR/VEGFR2, KHS/MAP4K5, LCK, LYN, LYN B, MEKK1, MLK4, MYLK3, NEK5, P38a/MAPK14, P38b/MAPK11, PDGFRa, PDGFRb, PEAK1, RET, RIPK2, RIPK4, SIK2, SRPK1, TAOK3/JIK, TLK1, TNK1, TXK, TYK2, YES/YES1, YSK4/MAP3K19, and ZAK/MLTK.

BLK = BLK (Homo sapiens, UniProt P51451); conditions: single concentration of 1 μM; read-out: percent inhibition of BLK
Chain of BLK (P51451 whole entry): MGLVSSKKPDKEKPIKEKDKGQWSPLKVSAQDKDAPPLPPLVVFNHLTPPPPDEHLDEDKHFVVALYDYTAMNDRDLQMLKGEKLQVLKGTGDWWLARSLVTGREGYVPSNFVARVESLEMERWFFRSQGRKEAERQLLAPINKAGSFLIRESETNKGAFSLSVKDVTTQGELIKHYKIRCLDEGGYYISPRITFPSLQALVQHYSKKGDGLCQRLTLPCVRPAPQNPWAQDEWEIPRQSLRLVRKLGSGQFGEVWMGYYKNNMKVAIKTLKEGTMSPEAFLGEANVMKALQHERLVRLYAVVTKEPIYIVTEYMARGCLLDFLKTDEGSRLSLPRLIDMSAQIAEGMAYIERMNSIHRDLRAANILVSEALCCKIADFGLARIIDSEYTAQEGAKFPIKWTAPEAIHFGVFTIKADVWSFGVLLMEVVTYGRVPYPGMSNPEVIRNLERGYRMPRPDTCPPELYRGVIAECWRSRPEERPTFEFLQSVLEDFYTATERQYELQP
Procedure: as §1

BRK = BRK (Homo sapiens, UniProt Q13882); conditions: single concentration of 1 μM; read-out: percent inhibition of BRK
Procedure: as §1

EPHA4 = EPHA4 (Homo sapiens, UniProt P54764); conditions: single concentration of 1 μM; read-out: percent inhibition of EPHA4
Procedure: as §1

EPHA7 = EPHA7 (Homo sapiens, UniProt Q15375); conditions: single concentration of 1 μM; read-out: percent inhibition of EPHA7
Procedure: as §1

EPHA8 = EPHA8 (Homo sapiens, UniProt P29322); conditions: single concentration of 1 μM; read-out: percent inhibition of EPHA8
Procedure: as §1

EPHB4 = EPHB4 (Homo sapiens, UniProt P54760); conditions: single concentration of 1 μM; read-out: percent inhibition of EPHB4
Procedure: as §1

ERBB2/HER2 = ERBB2/HER2 (Homo sapiens, UniProt P04626); conditions: single concentration of 1 μM; read-out: percent inhibition of ERBB2/HER2
Procedure: as §1

ERBB4/HER4 = ERBB4/HER4 (Homo sapiens, UniProt Q15303); conditions: single concentration of 1 μM; read-out: percent inhibition of ERBB4/HER4
Procedure: as §1

FGFR1 = FGFR1 (Homo sapiens, UniProt P11362); conditions: single concentration of 1 μM; read-out: percent inhibition of FGFR1
Procedure: as §1

FYN = FYN (Homo sapiens, UniProt P06241); conditions: single concentration of 1 μM; read-out: percent inhibition of FYN
Chain of FYN (P06241 whole entry): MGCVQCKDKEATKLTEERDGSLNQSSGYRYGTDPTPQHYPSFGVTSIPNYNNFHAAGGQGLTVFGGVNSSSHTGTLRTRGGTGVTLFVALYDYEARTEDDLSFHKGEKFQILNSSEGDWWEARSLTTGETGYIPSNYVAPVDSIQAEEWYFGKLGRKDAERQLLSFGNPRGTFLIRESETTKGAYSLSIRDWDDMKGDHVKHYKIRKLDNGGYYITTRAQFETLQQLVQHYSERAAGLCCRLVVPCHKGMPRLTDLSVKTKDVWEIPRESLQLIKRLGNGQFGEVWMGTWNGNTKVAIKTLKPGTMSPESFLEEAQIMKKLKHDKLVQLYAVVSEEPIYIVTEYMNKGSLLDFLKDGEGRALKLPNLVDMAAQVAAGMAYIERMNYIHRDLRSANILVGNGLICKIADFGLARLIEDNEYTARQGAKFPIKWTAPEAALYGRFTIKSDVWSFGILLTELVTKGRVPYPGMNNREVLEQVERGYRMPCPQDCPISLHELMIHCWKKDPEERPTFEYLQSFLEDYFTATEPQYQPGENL
Procedure: as §1

HCK = HCK (Homo sapiens, UniProt P08631); conditions: single concentration of 1 μM; read-out: percent inhibition of HCK
Procedure: as §1

KDR/VEGFR2 = KDR/VEGFR2 (Homo sapiens, UniProt P35968); conditions: single concentration of 1 μM; read-out: percent inhibition of KDR/VEGFR2
Chain of KDR/VEGFR2 (P35968 20-1356): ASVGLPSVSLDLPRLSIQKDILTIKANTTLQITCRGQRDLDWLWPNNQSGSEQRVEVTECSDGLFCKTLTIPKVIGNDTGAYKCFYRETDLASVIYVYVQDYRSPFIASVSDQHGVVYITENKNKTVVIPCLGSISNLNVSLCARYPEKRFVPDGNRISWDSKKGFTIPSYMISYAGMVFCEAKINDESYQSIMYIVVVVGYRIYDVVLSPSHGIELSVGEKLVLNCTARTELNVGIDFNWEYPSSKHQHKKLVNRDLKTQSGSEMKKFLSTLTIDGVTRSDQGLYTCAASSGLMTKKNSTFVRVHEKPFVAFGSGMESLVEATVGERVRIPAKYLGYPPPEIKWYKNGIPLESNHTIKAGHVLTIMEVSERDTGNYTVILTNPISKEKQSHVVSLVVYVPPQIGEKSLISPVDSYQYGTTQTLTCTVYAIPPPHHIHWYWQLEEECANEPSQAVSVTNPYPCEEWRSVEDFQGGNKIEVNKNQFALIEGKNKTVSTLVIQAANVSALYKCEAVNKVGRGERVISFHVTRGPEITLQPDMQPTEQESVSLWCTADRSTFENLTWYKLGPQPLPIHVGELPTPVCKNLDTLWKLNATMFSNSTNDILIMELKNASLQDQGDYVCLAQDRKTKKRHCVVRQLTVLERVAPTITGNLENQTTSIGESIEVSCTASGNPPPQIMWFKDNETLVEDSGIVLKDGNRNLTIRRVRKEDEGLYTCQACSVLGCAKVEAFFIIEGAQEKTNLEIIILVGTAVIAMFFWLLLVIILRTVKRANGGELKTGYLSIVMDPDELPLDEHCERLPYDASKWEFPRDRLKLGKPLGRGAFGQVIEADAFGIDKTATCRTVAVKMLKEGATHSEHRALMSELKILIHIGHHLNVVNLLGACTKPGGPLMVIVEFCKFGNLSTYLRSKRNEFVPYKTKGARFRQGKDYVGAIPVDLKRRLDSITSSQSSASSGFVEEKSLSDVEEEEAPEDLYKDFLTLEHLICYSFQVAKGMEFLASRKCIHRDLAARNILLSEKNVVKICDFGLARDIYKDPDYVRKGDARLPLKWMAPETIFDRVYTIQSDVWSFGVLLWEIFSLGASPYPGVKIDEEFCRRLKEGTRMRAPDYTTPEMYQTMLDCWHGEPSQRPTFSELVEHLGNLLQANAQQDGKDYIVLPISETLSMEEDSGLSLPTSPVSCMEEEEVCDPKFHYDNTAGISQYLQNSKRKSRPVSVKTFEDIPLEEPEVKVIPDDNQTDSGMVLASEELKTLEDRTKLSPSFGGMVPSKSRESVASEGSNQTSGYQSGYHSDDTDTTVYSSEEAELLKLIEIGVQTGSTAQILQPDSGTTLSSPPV
Procedure: as §1

KHS/MAP4K5 = KHS/MAP4K5 (Homo sapiens, UniProt Q9Y4K4); conditions: single concentration of 1 μM; read-out: percent inhibition of KHS/MAP4K5
Procedure: as §1

LYN = LYN (Homo sapiens, UniProt P07948); conditions: single concentration of 1 μM; read-out: percent inhibition of LYN
Procedure: as §1

MEKK1 = MEKK1 (Homo sapiens, UniProt Q13233); conditions: single concentration of 1 μM; read-out: percent inhibition of MEKK1
Procedure: as §1

P38a/MAPK14 = P38a/MAPK14 (Homo sapiens, UniProt Q16539); conditions: single concentration of 1 μM; read-out: percent inhibition of P38a/MAPK14
Chain of P38a/MAPK14 (Q16539 whole entry): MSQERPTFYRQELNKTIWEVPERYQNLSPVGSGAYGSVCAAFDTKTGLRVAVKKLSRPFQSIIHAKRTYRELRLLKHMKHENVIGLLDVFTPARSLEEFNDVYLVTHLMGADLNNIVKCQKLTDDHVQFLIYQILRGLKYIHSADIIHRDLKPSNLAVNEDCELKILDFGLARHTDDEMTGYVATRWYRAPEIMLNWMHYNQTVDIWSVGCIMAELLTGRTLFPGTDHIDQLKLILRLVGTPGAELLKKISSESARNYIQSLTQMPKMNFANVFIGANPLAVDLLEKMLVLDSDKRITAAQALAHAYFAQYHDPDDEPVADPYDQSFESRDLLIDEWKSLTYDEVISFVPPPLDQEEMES
Procedure: as §1

PDGFRa = PDGFRa (Homo sapiens, UniProt P16234); conditions: single concentration of 1 μM; read-out: percent inhibition of PDGFRa
Procedure: as §1

RIPK4 = RIPK4 (Homo sapiens, UniProt P57078); conditions: single concentration of 1 μM; read-out: percent inhibition of RIPK4
Chain of RIPK4 (P57078 whole entry): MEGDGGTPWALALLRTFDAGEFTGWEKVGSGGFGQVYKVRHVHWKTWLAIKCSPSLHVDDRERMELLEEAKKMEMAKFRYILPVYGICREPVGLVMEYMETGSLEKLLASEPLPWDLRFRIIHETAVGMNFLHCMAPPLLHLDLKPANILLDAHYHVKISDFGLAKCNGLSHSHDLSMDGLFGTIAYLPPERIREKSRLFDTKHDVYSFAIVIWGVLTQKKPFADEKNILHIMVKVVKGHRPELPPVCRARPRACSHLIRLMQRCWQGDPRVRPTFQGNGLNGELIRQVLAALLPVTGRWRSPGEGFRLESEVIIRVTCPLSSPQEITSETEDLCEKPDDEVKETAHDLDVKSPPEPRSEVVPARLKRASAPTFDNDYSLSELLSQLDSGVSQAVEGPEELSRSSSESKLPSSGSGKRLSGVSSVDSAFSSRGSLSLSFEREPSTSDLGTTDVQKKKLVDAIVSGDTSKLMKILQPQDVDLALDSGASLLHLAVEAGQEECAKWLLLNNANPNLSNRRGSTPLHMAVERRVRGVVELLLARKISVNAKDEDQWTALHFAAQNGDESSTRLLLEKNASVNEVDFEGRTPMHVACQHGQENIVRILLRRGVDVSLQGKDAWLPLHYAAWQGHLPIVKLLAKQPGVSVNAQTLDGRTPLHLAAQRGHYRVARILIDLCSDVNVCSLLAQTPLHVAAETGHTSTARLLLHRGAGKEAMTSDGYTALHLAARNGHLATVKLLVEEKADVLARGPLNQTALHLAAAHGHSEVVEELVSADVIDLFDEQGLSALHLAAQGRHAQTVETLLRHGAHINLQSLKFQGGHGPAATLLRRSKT
Procedure: as §1

SIK2 = SIK2 (Homo sapiens, UniProt Q9H0K1); conditions: single concentration of 1 μM; read-out: percent inhibition of SIK2
Procedure: as §1

SRPK1 = SRPK1 (Homo sapiens, UniProt Q96SB4); conditions: single concentration of 1 μM; read-out: percent inhibition of SRPK1
Procedure: as §1

TXK = TXK (Homo sapiens, UniProt P42681); conditions: single concentration of 1 μM; read-out: percent inhibition of TXK
Chain of TXK (P42681 whole entry): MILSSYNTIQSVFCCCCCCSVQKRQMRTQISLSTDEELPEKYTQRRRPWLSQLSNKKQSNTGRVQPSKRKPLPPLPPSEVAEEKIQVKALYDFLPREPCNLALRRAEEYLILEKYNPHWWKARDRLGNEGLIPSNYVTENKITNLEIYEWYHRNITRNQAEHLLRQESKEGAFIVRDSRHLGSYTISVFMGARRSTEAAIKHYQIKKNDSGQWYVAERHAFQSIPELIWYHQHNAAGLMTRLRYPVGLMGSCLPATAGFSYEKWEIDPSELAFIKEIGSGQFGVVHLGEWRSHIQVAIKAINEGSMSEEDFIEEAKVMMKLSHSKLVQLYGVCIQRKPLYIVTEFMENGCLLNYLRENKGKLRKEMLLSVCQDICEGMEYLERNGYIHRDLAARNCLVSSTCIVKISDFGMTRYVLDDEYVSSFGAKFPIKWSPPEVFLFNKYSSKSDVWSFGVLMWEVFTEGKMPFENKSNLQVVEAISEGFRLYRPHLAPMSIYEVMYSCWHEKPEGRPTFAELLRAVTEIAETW
Procedure: as §1

ZAK/MLTK = ZAK/MLTK (Homo sapiens, UniProt Q9NYL2); conditions: single concentration of 1 μM; read-out: percent inhibition of ZAK/MLTK
Procedure: as §1

c-Src = c-Src (Homo sapiens, UniProt P12931); conditions: single concentration of 1 μM; read-out: percent inhibition of c-Src
Chain of c-Src (P12931 whole entry): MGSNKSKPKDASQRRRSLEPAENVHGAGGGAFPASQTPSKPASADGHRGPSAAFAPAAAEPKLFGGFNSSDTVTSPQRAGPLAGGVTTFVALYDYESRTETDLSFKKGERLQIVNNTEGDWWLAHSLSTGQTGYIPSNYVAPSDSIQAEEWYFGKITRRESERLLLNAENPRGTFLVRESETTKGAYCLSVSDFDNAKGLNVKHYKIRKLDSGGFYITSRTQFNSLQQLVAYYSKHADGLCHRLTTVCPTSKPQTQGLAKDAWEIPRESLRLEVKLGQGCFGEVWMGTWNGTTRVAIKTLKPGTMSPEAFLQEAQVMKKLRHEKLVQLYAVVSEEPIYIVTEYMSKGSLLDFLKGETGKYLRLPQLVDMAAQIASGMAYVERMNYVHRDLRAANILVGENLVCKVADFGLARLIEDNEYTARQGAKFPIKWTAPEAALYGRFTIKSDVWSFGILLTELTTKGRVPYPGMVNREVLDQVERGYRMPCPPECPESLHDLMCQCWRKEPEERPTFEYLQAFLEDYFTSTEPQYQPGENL
Procedure: as §1

inhibition at 1 µM (ABL1): ≥ 70% | inhibition at 1 µM (BLK): ≥ 70% | inhibition at 1 µM (BRK): ≥ 70% | inhibition at 1 µM (EPHA4): ≥ 70% | inhibition at 1 µM (EPHA7): ≥ 70% | inhibition at 1 µM (EPHA8): ≥ 70% | inhibition at 1 µM (EPHB4): ≥ 70% | inhibition at 1 µM (ERBB2/HER2): ≥ 70% | inhibition at 1 µM (ERBB4/HER4): ≥ 70% | inhibition at 1 µM (FGFR1): ≥ 70% | inhibition at 1 µM (FYN): ≥ 70% | inhibition at 1 µM (HCK): ≥ 70% | inhibition at 1 µM (KDR/VEGFR2): ≥ 70% | inhibition at 1 µM (KHS/MAP4K5): ≥ 70% | inhibition at 1 µM (LYN): ≥ 70% | inhibition at 1 µM (MEKK1): ≥ 70% | inhibition at 1 µM (P38a/MAPK14): ≥ 70% | inhibition at 1 µM (PDGFRa): ≥ 70% | inhibition at 1 µM (RIPK4): ≥ 70% | inhibition at 1 µM (SIK2): ≥ 70% | inhibition at 1 µM (SRPK1): ≥ 70% | inhibition at 1 µM (TXK): ≥ 70% | inhibition at 1 µM (ZAK/MLTK): ≥ 70% | inhibition at 1 µM (c-Src): ≥ 70%
SMILES: Cc1ccc(Nc2ncc3cc(-c4cc(NC(=O)c5cccc(C(F)(F)F)c5)ccc4C)ncc3n2)cn1 [Compound No. 4, N-(4-methyl-3-(2-((6-methylpyridin-3-yl)amino)pyrido[3,4-d]pyrimidin-6-yl)phenyl)-3-(trifluoromethyl)benzamide]
